Measurements published in the supplement of paper PMC10331698.
± gives the standard deviation of the averaged measurements.

Key:
Assay in all cases: level (log10 ratio to DMSO vehicle control); higher = higher biomarker level / cell amount than vehicle control
[1] = compound: O=C(O)C=C(C(F)(F)F)C(F)(F)F [3,3-Bis(trifluoromethyl)-2-propenoic acid] (in DMSO)
Description: (§1)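 BioMAP Diversity Plus panel of 12 human primary cell co-culture systems (3C, 4H, LPS, SAg, BT, BF4T, BE3C, CASM3C, HDF3CGF, KF3CT, MyoF, Mphg). Compounds were added 1 h before stimulation and left for 24 h (MyoF 48 h; BT 72 h for soluble read-outs or 6 d for IgG). Biomarkers were read by ELISA, cytotoxicity by SRB, PBMC viability and proliferation by Alamar Blue. Each well value was divided by the mean of 8 DMSO control wells on the same plate and log10 transformed; duplicate blinded samples were tested at 4 concentrations.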

[2] = compound: O=S(=O)(O)CCC(F)(F)C(F)(F)C(F)(F)C(F)(F)C(F)(F)C(F)(F)C(F)(F)C(F)(F)F [8:2 Fluorotelomer sulfonic acid] (in DMSO)
Description: as §1

[3] = compound: O=C(O)C(F)(F)C(F)(F)C(F)(F)C(F)(F)C(F)(F)C(F)(F)C(F)(F)C(F)(F)F [Perfluorononanoic acid] (in DMSO)
Description: as §1

[4] = compound: O=C(O)C(F)(F)C(F)(F)C(F)(F)C(F)(F)C(=O)O [Octafluoroadipic acid] (in DMSO)
Description: as §1

[5] = compound: O=C(O)C(F)(F)C(F)(F)C(F)(F)OC(F)(F)F [Perfluoro(4-methoxybutanoic) acid] (in DMSO)
Description: as §1

[6] = compound: O=C(O)C(F)(F)C(F)(F)C(F)(F)C(F)(F)C(F)(F)C(F)(F)C(F)(F)C(F)(F)C(F)(F)C(F)(F)F [Perfluoroundecanoic acid] (in DMSO); details: 6700 nM
Description: as §1

[7] = compound: OCC(F)(F)OC(F)(F)C(F)(F)OC(F)(F)C(F)(F)OC(F)(F)CO [1H,1H,11H,11H-Perfluorotetraethylene glycol] (in DMSO)
Description: as §1

Row | Test System | level (log10) ([1]; 6700 nM) | level (log10) ([1]; 20000 nM) | level (log10) ([1]; 60000 nM) | level (log10) ([2]; 6700 nM) | level (log10) ([2]; 20000 nM) | level (log10) ([2]; 60000 nM) | level (log10) ([3]; 6700 nM) | level (log10) ([3]; 20000 nM) | level (log10) ([4]; 6700 nM) | level (log10) ([4]; 20000 nM) | level (log10) ([4]; 60000 nM) | level (log10) ([5]; 6700 nM) | level (log10) ([5]; 20000 nM) | level (log10) ([5]; 60000 nM) | level (log10) [6] | level (log10) ([7]; 6700 nM) | level (log10) ([7]; 20000 nM) | level (log10) ([7]; 60000 nM)
1 | LPS:sPGE2 | -0.0855 ± 0.016 | -0.09 ± 0.021 | -0.106 ± 0.016 | -0.0245 ± 0.0035 | -0.078 ± 0.047 | -0.293 ± 0.017 | -0.0695 ± 0.00071 | -0.144 ± 0.0064 | -0.002 ± 0.044 | -0.023 ± 0.0028 | -0.014 ± 0.017 | -0.0115 ± 0.026 | 0.01 ± 0.047 | -0.012 ± 0.017 | -0.0665 ± 0.044 | 0.032 ± 0.034 | 0.0965 ± 0.0078 | 0.056 ± 0.011
2 | BF4T:MMP-3 | -0.0165 ± 0.00071 | -0.0105 ± 0.0064 | 0.0205 ± 0.037 | -0.0095 ± 0.043 | 0.027 ± 0.034 | 0.0755 ± 0.0078 | 0.0005 ± 0.035 | 0.015 ± 0.0071 | 0.0055 ± 0.033 | -0.0055 ± 0.035 | 0.0025 ± 0.022 | 0.0015 ± 0.012 | -0.008 ± 0.014 | 0.0155 ± 0.0078 | -0.002 ± 0.038 | 0.0035 ± 0.016 | 0.012 ± 0.0028 | -0.011 ± 0.013
3 | LPS:M-CSF | -0.071 ± 0.082 | -0.155 ± 0.13 | -0.203 ± 0.13 | -0.016 ± 0.041 | 0.0075 ± 0.054 | -0.0795 ± 0.088 | -0.001 ± 0.045 | 0.035 ± 0.024 | 0.002 ± 0.0099 | 0.0175 ± 0.023 | 0.0005 ± 0.00071 | -0.014 ± 0.014 | -0.024 | -0.008 ± 0.011 | 0.049 ± 0.0028 | 0.0105 ± 0.03 | -0.0025 ± 0.036 | 0.0355 ± 0.011
4 | 3C:CD87/uPAR | 0.0225 ± 0.0035 | 0.014 ± 0.02 | -0.0035 ± 0.013 | 0.0195 ± 0.016 | -0.001 ± 0.058 | -0.003 ± 0.03 | 0.002 ± 0.011 | -0.018 ± 0.016 | -0.023 ± 0.0057 | -0.0175 ± 0.025 | -0.014 ± 0.021 | -0.03 ± 0.058 | -0.035 ± 0.051 | -0.0265 ± 0.04 | -0.0125 ± 0.005 | 0.008 ± 0.03 | -0.007 ± 0.023 | -0.0005 ± 0.011
5 | BF4T:uPA | -0.0175 ± 0.0078 | -0.0195 ± 0.012 | -0.0135 ± 0.013 | 0.012 ± 0.0085 | 0.0055 ± 0.00071 | 0.0175 ± 0.0092 | -0.01 ± 0.054 | 0.0335 ± 0.032 | -0.0115 ± 0.023 | -0.0175 ± 0.03 | -0.003 | -0.009 ± 0.0085 | -0.012 | 0.0045 ± 0.005 | 0.0275 ± 0.0064 | -0.0125 ± 0.018 | -0.0155 ± 0.013 | -0.0215 ± 0.0064
6 | BF4T:PAI-I | 0.0055 ± 0.0021 | 0.001 ± 0.0042 | -0.0055 ± 0.021 | 0.005 ± 0.0099 | 0.002 ± 0.011 | 0.009 ± 0.0042 | -0.0145 ± 0.03 | -0.007 ± 0.028 | -0.0045 ± 0.026 | -0.011 ± 0.013 | 0.007 ± 0.0071 | 0.0015 ± 0.011 | -0.008 ± 0.014 | 0.014 ± 0.035 | 0.007 ± 0.0085 | -0.0035 ± 0.0092 | -0.0335 ± 0.00071 | -0.069 ± 0.016
7 | BE3C:CD87/uPAR | -0.0365 ± 0.025 | -0.0635 ± 0.013 | -0.012 ± 0.013 | 0.0225 ± 0.0035 | 0.0135 ± 0.011 | -0.01 ± 0.031 | 0.046 ± 0.013 | 0.0495 ± 0.019 | -0.0115 ± 0.00071 | 0.0035 ± 0.00071 | 0.0125 ± 0.018 | 0.0145 ± 0.011 | -0.0195 ± 0.019 | 0.002 ± 0.0099 | 0.138 ± 0.019 | 0.0025 ± 0.0078 | 0.01 ± 0.0071 | -0.0355 ± 0.0078
8 | SAg:CD69 | -0.0145 ± 0.013 | -0.0615 ± 0.0092 | -0.171 ± 0.0014 | -0.025 ± 0.057 | -0.0205 ± 0.04 | -0.043 ± 0.075 | -0.035 | -0.0335 ± 0.015 | 0.0345 ± 0.073 | 0.0345 ± 0.056 | 0.0315 ± 0.054 | 0.027 ± 0.076 | 0.0345 ± 0.066 | 0.045 ± 0.086 | -0.0285 ± 0.018 | -0.0095 ± 0.1 | -0.0275 ± 0.066 | -0.162 ± 0.061
